According to publication PMC9721025, “Pharmacokinetic study of the main components of Tanreqing capsules and Tanreqing injections in beagles by liquid chromatography–tandem mass spectrometry” (Chinese Medicine, 2022):

Experiments:
[1] = Stability of analytes in dog plasma (QC samples); assay type: in vitro ADME
Description: The stock solutions of all analytes were further mixed and diluted with methanol/water (10:90, v/v) solution to prepare the working solutions. […] The QC samples were stored in a refrigerator at – 80 °C until retrieval (see Additional file 1). The stability, which includes short-term stability (6 h at room temperature), long-term stability (− 80 °C for 30 days in the refrigerator), and freeze–thaw stability (three cycles from − 80 °C to room temperature), were assessed using QC samples at three concentration levels in three replicates. […] Similarly, there were no obvious effects on the analysis results of the samples with respect to short-term stability or long-term storage.

[2] = Pharmacokinetics in beagles, multiple-dose regimen (once per day for 7 days) of TRQI or TRQC, plasma LC-MS/MS; assay type: in vivo; conditions: beagle, dog; for Cmax at 7 days / Tmax at 7 days / half-life at 7 days: mean
Description: (§1) 100 μL plasma sample was drawn and transferred to 1.5 mL centrifuge tube prior to 300 μL protein precipitant (3:1 [v/v] methanol/acetonitrile, containing 0.1% formic acid and 100 ng/mL IS) was added, and then the sample was vortex-mixed for 3 min. The mixture was centrifuged at 20,000 ×g for 10 min, and 100 μL supernatant was transferred to the injection vial and analyzed directly by LC–MS/MS.
(§2) This study was carried out in six beagles (three males and three females, 9.0–12.0 kg each), that were purchased from Junda Pet Hospital (Shanghai, China). This experimental protocol was approved by the Experimental Animal Ethics Committee of the Naval Military Medical University (Shanghai, China).
After the end of the single-dose experiment, the dogs in group one were given 0.5 mL/kg injection of TRQI once per day for 7 days following the wash out period, and the dogs in group two were given 0.09 g/kg TRQC once per day for 7 days. After the seventh administration, blood samples were collected at 0, 10, 20, and 40 min and then at 1, 1.5, 2, 2.5, 3, 4, 6, 8, 12, and 24 h (a total of 14 time points) and were processed as described in “Single-dose regimen” section. The resulting plasma samples were used to determine the steady-state plasma concentration of TRQI and TRQC. A crossover study was again carried out in both groups, as described in “Single-dose regimen” section, after a 7-day washing period.
(§3) All data obtained were analyzed using Drug and Statistics (DAS) 2.0 software (Chinese Society of Pharmacology), and a non-compartment analysis was used to calculate plasma pharmacokinetic parameters. The principal components of TRQI and TRQC were compared with an analysis of variance (ANOVA) and/or a two-tailed student-t test.

[3] = Pharmacokinetics in beagles, single-dose regimen of TRQI (i.v.) or TRQC (oral), plasma LC-MS/MS; assay type: in vivo, beagle; conditions: beagle, dog, plasma; for AUC(0-t): read-out: AUC0–24 h; for Cmax / Tmax / half-life: mean of six beagles
Description: as §1, §2
The six healthy beagles were divided into two groups: beagles 1–3 were all male and were assigned to the first group, and beagles 4–6 were all females and assigned to the second group. The two-cycle, crossover study was designed with a 7-day wash out period. For the single-administration process, the dogs in the first group were injected intravenously with 0.5 mL/kg TRQI (one-third of the normal daily dose), and blood samples were collected at 0, 5, 10, 15, 20, 30, and 45 min and then at 1, 2, 4, 6, 8, 12, and 24 h (a total of 14 time points) after injection. For each blood sample, 1 mL of blood was collected from the forelimb vein in heparin-treated tubes. The dogs in the second group were orally administrated 0.09 g/kg TRQC (one-third of the normal daily dose, and blood samples were collected in the same manner at 0, 10, 20, and 40 min and then at 1, 1.5, 2, 2.5, 3, 4, 6, 8, 12, and 24 h (a total of 14 time points). All blood samples were centrifuged at 4000 × g for 5 min, and each supernatant was collected and aliquoted. After a 7-day wash out period, the dogs in each group were administrated the other Tanreqing formulation in a crossover design, and blood samples were collected and processed in the same way.
as §3

[4] = n = 3, high QC: nominal 200 ng/mL baicalin, 1000 ursodeoxycholic acid, 100 chenodeoxycholic acid and chlorogenic acid
[5] = n = 3, low QC: nominal 4 ng/mL baicalin, 20 ursodeoxycholic acid, 2 chenodeoxycholic acid and chlorogenic acid
[6] = n = 3, middle QC: nominal 20 ng/mL baicalin, 100 ursodeoxycholic acid, 10 chenodeoxycholic acid and chlorogenic acid
[7] = both sexes, iv, TRQI 0.5 mL/kg once per day for 7 days
[8] = both sexes, po, TRQC 0.09 g/kg once per day for 7 days
[9] = both sexes, iv, single i.v. dose of TRQI 0.5 mL/kg
[10] = both sexes, single oral dose of TRQC 0.09 g/kg

- Freeze-thaw stability (3 cycles) Mean ± S.D. concentration [1, 4]: 95.65 ± 3.72 ng/mL
- Long-term stability (30 days at – 80 °C) Mean ± S.D. concentration [1, 4]: 87.31 ± 4.62 ng/mL
- Short-term stability (6 h at room temperature) Mean ± S.D concentration [1, 4]: 88.28 ± 2.72 ng/mL
- Freeze-thaw stability (3 cycles) Mean ± S.D. concentration [1, 5]: 2.07 ± 0.17 ng/mL
- Long-term stability (30 days at – 80 °C) Mean ± S.D. concentration [1, 5]: 1.73 ± 0.05 ng/mL
- Short-term stability (6 h at room temperature) Mean ± S.D concentration [1, 5]: 1.98 ± 0.16 ng/mL
- Freeze-thaw stability (3 cycles) Mean ± S.D. concentration [1, 6]: 10.03 ± 0.84 ng/mL
- Long-term stability (30 days at – 80 °C) Mean ± S.D. concentration [1, 6]: 8.95 ± 0.42 ng/mL
- Short-term stability (6 h at room temperature) Mean ± S.D concentration [1, 6]: 8.97 ± 0.70 ng/mL
- AUC(0-inf) ([2]; both sexes, iv, 0.5 mL/kg, TRQI 0.5 mL/kg for 7 days, Mean): 15.9 ng·h/mL
- AUC(0-t) ([2]; both sexes, iv, 0.5 mL/kg, TRQI 0.5 mL/kg for 7 days, Mean, read-out: AUC0–24 h): 15.4 ng·h/mL
- Cmax at 7 days [2, 7]: 20.3 ng/mL
- Tmax at 7 days [2, 7]: 0.18 h
- half-life at 7 days [2, 7]: 0.88 h
- AUC(0-inf) ([2]; both sexes, po, 0.09 g/kg, TRQC 0.09 g/kg for 7 days, Mean): 12.3 ng·h/mL
- AUC(0-t) ([2]; both sexes, po, 0.09 g/kg, TRQC 0.09 g/kg for 7 days, Mean, read-out: AUC0–24 h): 11.7 ng·h/mL
- Cmax at 7 days [2, 8]: 3.9 ng/mL
- Tmax at 7 days [2, 8]: 3.17 h
- half-life at 7 days [2, 8]: 1.56 h
- AUC(0-inf) ([2]; female, iv, 0.5 mL/kg, TRQI 0.5 mL/kg for 7 days, beagle No. 4): 19.3 ng·h/mL
- AUC(0-t) ([2]; female, iv, 0.5 mL/kg, TRQI 0.5 mL/kg for 7 days, beagle No. 4, read-out: AUC0–24 h): 19.1 ng·h/mL
- AUC(0-inf) ([2]; female, iv, 0.5 mL/kg, TRQI 0.5 mL/kg for 7 days, beagle No. 5): 24.4 ng·h/mL
- AUC(0-t) ([2]; female, iv, 0.5 mL/kg, TRQI 0.5 mL/kg for 7 days, beagle No. 5, read-out: AUC0–24 h): 23.9 ng·h/mL
- AUC(0-inf) ([2]; female, iv, 0.5 mL/kg, TRQI 0.5 mL/kg for 7 days, beagle No. 6): 30.7 ng·h/mL
- AUC(0-t) ([2]; female, iv, 0.5 mL/kg, TRQI 0.5 mL/kg for 7 days, beagle No. 6, read-out: AUC0–24 h): 30 ng·h/mL
- AUC(0-inf) ([2]; female, po, 0.09 g/kg, TRQC 0.09 g/kg for 7 days, beagle No. 4): 23.2 ng·h/mL
- AUC(0-t) ([2]; female, po, 0.09 g/kg, TRQC 0.09 g/kg for 7 days, beagle No. 4, read-out: AUC0–24 h): 22.6 ng·h/mL
- AUC(0-inf) ([2]; female, po, 0.09 g/kg, TRQC 0.09 g/kg for 7 days, beagle No. 5): 13.3 ng·h/mL
- AUC(0-t) ([2]; female, po, 0.09 g/kg, TRQC 0.09 g/kg for 7 days, beagle No. 5, read-out: AUC0–24 h): 11.4 ng·h/mL
- AUC(0-inf) ([2]; female, po, 0.09 g/kg, TRQC 0.09 g/kg for 7 days, beagle No. 6): 27 ng·h/mL
- AUC(0-t) ([2]; female, po, 0.09 g/kg, TRQC 0.09 g/kg for 7 days, beagle No. 6, read-out: AUC0–24 h): 26.9 ng·h/mL
- AUC(0-inf) ([2]; male, iv, 0.5 mL/kg, TRQI 0.5 mL/kg for 7 days, beagle No. 1): 6.07 ng·h/mL
- AUC(0-t) ([2]; male, iv, 0.5 mL/kg, TRQI 0.5 mL/kg for 7 days, beagle No. 1, read-out: AUC0–24 h): 6.07 ng·h/mL
- AUC(0-inf) ([2]; male, iv, 0.5 mL/kg, TRQI 0.5 mL/kg for 7 days, beagle No. 2): 5.59 ng·h/mL
- AUC(0-t) ([2]; male, iv, 0.5 mL/kg, TRQI 0.5 mL/kg for 7 days, beagle No. 2, read-out: AUC0–24 h): 5.24 ng·h/mL
- AUC(0-inf) ([2]; male, iv, 0.5 mL/kg, TRQI 0.5 mL/kg for 7 days, beagle No. 3): 9.2 ng·h/mL
- AUC(0-t) ([2]; male, iv, 0.5 mL/kg, TRQI 0.5 mL/kg for 7 days, beagle No. 3, read-out: AUC0–24 h): 8.21 ng·h/mL
- AUC(0-inf) ([2]; male, po, 0.09 g/kg, TRQC 0.09 g/kg for 7 days, beagle No. 1): 1.31 ng·h/mL
- AUC(0-t) ([2]; male, po, 0.09 g/kg, TRQC 0.09 g/kg for 7 days, beagle No. 1, read-out: AUC0–24 h): 0.72 ng·h/mL
- AUC(0-inf) ([2]; male, po, 0.09 g/kg, TRQC 0.09 g/kg for 7 days, beagle No. 2): 3.2 ng·h/mL
- AUC(0-t) ([2]; male, po, 0.09 g/kg, TRQC 0.09 g/kg for 7 days, beagle No. 2, read-out: AUC0–24 h): 3.19 ng·h/mL
- AUC(0-inf) ([2]; male, po, 0.09 g/kg, TRQC 0.09 g/kg for 7 days, beagle No. 3): 5.62 ng·h/mL
- AUC(0-t) ([2]; male, po, 0.09 g/kg, TRQC 0.09 g/kg for 7 days, beagle No. 3, read-out: AUC0–24 h): 5.21 ng·h/mL
- AUC(0-t) ([3]; both sexes, iv, 0.5 mL/kg, single TRQI 0.5 mL/kg, Mean): 20.3 ng·h/mL
- Cmax [3, 9]: 26.6 ng/mL
- Tmax [3, 9]: 0.13 h
- half-life [3, 9]: 0.89 h
- AUC(0-t) ([3]; both sexes, po, 0.09 g/kg, single TRQCs 0.09 g/kg, Mean): 29.1 ng·h/mL
- Cmax [3, 10]: 8.58 ng/mL
- Tmax [3, 10]: 3.75 h
- half-life [3, 10]: 1.45 h
- AUC(0-t) ([3]; female, iv, 0.5 mL/kg, single TRQI 0.5 mL/kg, beagle No 4): 11.2 ng·h/mL
- AUC(0-t) ([3]; female, iv, 0.5 mL/kg, single TRQI 0.5 mL/kg, beagle No 5): 15.2 ng·h/mL
- AUC(0-t) ([3]; female, iv, 0.5 mL/kg, single TRQI 0.5 mL/kg, beagle No 6): 24.8 ng·h/mL
- AUC(0-t) ([3]; female, po, 0.09 g/kg, single TRQCs 0.09 g/kg, beagle No 4): 13.9 ng·h/mL
- AUC(0-t) ([3]; male, iv, 0.5 mL/kg, single TRQI 0.5 mL/kg, beagle No 1): 29.6 ng·h/mL
- AUC(0-t) ([3]; male, iv, 0.5 mL/kg, single TRQI 0.5 mL/kg, beagle No 2): 17.8 ng·h/mL
- AUC(0-t) ([3]; male, po, 0.09 g/kg, single TRQCs 0.09 g/kg, beagle No 1): 21.1 ng·h/mL
- AUC(0-t) ([3]; male, po, 0.09 g/kg, single TRQCs 0.09 g/kg, beagle No 2): 48.1 ng·h/mL
- AUC(0-t) ([3]; male, po, 0.09 g/kg, single TRQCs 0.09 g/kg, beagle No 3): 33.2 ng·h/mL
SMILES: O=C(/C=C/c1ccc(O)c(O)c1)O[C@@H]1C[C@](O)(C(=O)O)C[C@@H](O)[C@H]1O [Chlorogenic acid, chlorogenic acid]
